How the values were obtained:
HIV-1 = assay: HIV viral load in patients sensitized and rechallenged topically; type: in vivo, human
Description: As examples of the HIV viral load reducing effects of the subject compositions, two patients were sensitized with 0.400% diphenylcyclopropenone in a vehicle consisting of equal parts of polyoxysorbitan 20 monooleate and isopropyl myristate and subsequently rechallenged with 0.100% diphenylcyclopropenone in the same vehicle two weeks, four weeks and eight weeks later.

[1] = cited from earlier work
[2] = rodents; cited from earlier work

| Compound | HIV-1 RNA Copies/1.0 ml Plasma (HIV-1; Patient #1, Baseline) | HIV-1 RNA Copies/1.0 ml Plasma (HIV-1; Patient #1, Eight Weeks, sensitized 0.400%, rechallenged 0.100% topically) [Copies/1.0 ml Plasma] | HIV-1 RNA Copies/1.0 ml Plasma (HIV-1; Patient #1, Four Weeks, sensitized 0.400%, rechallenged 0.100% topically) [Copies/1.0 ml Plasma] | HIV-1 RNA Copies/1.0 ml Plasma (HIV-1; Patient #1, Two Weeks, sensitized 0.400%, rechallenged 0.100% topically) [Copies/1.0 ml Plasma] | HIV-1 RNA Copies/1.0 ml Plasma (HIV-1; Patient #2, Baseline) [Copies/1.0 ml Plasma] | HIV-1 RNA Copies/1.0 ml Plasma (HIV-1; Patient #2, Eight Weeks, sensitized 0.400%, rechallenged 0.100% topically) [Copies/1.0 ml Plasma] | toxic effects with repeated human use [1] | LD/50 [2] [mg/kg] |
| --- | --- | --- | --- | --- | --- | --- | --- | --- |
| O=c1c(-c2ccccc2)c1-c1ccccc1 [diphenylcyclopropenone] | 400 Copies Copies/1.0 ml Plasma | 79 | 60 | 118 | 440 | 351 |  |  |
| CC(C)=O [Acetone] |  |  |  |  |  |  | epidermal erythema, dryness, headache, bronchial irritation, CNS effects including fatigue and excitement | 10.7 |

From patent publication US20020128326A1, “TOPICAL IMMUNOMODULATING COMPOSITIONS FOR TREATMENT OF AIDS, HEPATITIS B&C, OTHER INFECTIOUS DISEASES, AND CANCER” (priority 1998, published 2002)
